# Laboratory results from PMC6934184, “Selective DNA-PKcs inhibition extends the therapeutic index of localized radiotherapy and chemotherapy” (The Journal of Clinical Investigation, 2019).
# Biological target: T1, MINK1 (Homo sapiens, UniProt Q8N4C8)
# T1 construct: purchased Thermo Fisher Scientific (Life Technologies) SelectScreen
# Experiment: SelectScreen Z'LYTE
# Type: biochemical
# Method in brief: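 SelectScreen broad panel; activity (Z'LYTE, Adapta) plus binding formats. ATP: Km app for CSF1R Z'LYTE; 10 for CAMK1 Adapta. Readout = % per kinase.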
# T1 sequence (Q8N4C8 whole entry): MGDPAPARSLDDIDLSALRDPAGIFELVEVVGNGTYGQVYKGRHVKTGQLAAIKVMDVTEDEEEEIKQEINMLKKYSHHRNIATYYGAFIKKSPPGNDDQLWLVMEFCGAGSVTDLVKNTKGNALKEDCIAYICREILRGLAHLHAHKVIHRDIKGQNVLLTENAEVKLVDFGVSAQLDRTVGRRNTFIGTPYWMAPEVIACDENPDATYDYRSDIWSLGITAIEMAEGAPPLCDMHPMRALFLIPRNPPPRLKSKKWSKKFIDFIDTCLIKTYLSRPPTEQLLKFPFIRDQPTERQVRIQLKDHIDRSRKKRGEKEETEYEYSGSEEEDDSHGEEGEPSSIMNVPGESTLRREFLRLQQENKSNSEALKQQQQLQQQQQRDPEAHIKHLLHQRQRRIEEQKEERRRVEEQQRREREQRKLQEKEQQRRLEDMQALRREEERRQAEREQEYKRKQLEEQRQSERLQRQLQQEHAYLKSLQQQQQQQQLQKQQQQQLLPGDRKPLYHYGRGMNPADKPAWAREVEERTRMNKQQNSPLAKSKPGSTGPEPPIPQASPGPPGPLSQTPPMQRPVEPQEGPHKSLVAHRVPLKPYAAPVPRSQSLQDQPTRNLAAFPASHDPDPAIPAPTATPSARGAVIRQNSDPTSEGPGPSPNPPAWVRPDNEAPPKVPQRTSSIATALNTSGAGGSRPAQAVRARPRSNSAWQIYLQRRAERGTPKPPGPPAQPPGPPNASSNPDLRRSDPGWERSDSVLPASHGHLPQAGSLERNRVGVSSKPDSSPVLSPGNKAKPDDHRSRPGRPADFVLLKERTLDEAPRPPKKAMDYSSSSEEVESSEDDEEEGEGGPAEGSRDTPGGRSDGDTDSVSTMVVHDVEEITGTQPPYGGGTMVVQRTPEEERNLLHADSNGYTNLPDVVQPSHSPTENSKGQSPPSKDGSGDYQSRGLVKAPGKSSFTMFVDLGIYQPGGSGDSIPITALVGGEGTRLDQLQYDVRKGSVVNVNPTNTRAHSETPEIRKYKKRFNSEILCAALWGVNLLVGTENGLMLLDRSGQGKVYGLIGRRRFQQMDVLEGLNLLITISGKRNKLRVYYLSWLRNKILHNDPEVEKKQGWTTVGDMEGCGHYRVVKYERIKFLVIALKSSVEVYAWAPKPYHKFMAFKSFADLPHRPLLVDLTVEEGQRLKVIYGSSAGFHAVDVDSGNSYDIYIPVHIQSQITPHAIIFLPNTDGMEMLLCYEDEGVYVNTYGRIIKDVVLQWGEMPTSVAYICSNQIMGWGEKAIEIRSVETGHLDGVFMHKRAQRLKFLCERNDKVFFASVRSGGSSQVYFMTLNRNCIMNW
compound,measurement,value
CN(C(=O)CN1CCOCC1)c1ccc2sc3c(-c4cccc5c(=O)cc(N6CC7CCC(C6)O7)oc45)cccc3c2c1 [NU5455],inhibition at 1 µM,4.6%
